In ChEMBL document CHEMBL3045929, “Design, synthesis, and evaluation of novel indomethacinantioxidant codrugs as gastrosparing NSAIDs” (2012):

Key:
Rattus norvegicus [1] = assay: Anti-inflammatory activity in Rattus norvegicus Sprague-Dawley (rat) assessed as increase in carrageenan-induced paw edema at 16 mg/kg, po measured at 4 hr by plethysmometer (reference value: 81.58 +/- 0.63 %); type: functional
Rattus norvegicus [2] = assay: Anti-inflammatory activity in Rattus norvegicus Sprague-Dawley (rat) assessed as increase in carrageenan-induced paw edema at 16 mg/kg, po measured at 2 hr by plethysmometer (reference value: 64.73 +/- 0.72 %); type: functional
Mus musculus [3] = assay: Analgesic activity in Mus musculus (mouse) assessed as inhibition of acetic acid-induced abdominal writhing at 13.96 mg/kg, po measured for 20 min relative to vehicle-treated control; details: Abdomen
Rattus norvegicus [4] = assay: Antiulcerogenic activity in fasted Rattus norvegicus Sprague-Dawley (rat) stomach assessed as ulcer index at 67.1 mg/kg, po after 8 hr (reference value: 0.23 +/- 0.09); type: functional
Rattus norvegicus [5] = assay: Anti-inflammatory activity in Rattus norvegicus Sprague-Dawley (rat) assessed as increase in carrageenan-induced paw edema at 16.8 mg/kg, po measured at 2 hr by plethysmometer (reference value: 64.73 +/- 0.72 %); type: functional
Rattus norvegicus [6] = assay: Anti-inflammatory activity in Rattus norvegicus Sprague-Dawley (rat) assessed as increase in carrageenan-induced paw edema at 16.8 mg/kg, po measured at 4 hr by plethysmometer (reference value: 81.58 +/- 0.63 %); type: functional
Rattus norvegicus [7] = assay: Antiulcerogenic activity in fasted Rattus norvegicus Sprague-Dawley (rat) stomach assessed as ulcer index at 64.1 mg/kg, po after 8 hr (reference value: 0.23 +/- 0.09); type: functional
Mus musculus [8] = assay: Analgesic activity in Mus musculus (mouse) assessed as inhibition of acetic acid-induced abdominal writhing at 13.35 mg/kg, po measured for 20 min relative to vehicle-treated control; details: Abdomen
Rattus norvegicus [9] = assay: Anti-inflammatory activity in Rattus norvegicus Sprague-Dawley (rat) assessed as increase in carrageenan-induced paw edema at 16.6 mg/kg, po measured at 2 hr by plethysmometer (reference value: 64.73 +/- 0.72 %); type: functional
Rattus norvegicus [10] = assay: Antiulcerogenic activity in fasted Rattus norvegicus Sprague-Dawley (rat) stomach assessed as ulcer index at 66.5 mg/kg, po after 8 hr (reference value: 0.23 +/- 0.09); type: functional
Rattus norvegicus [11] = assay: Anti-inflammatory activity in Rattus norvegicus Sprague-Dawley (rat) assessed as increase in carrageenan-induced paw edema at 16.6 mg/kg, po measured at 4 hr by plethysmometer (reference value: 81.58 +/- 0.63 %); type: functional
Mus musculus [12] = assay: Analgesic activity in Mus musculus (mouse) assessed as inhibition of acetic acid-induced abdominal writhing at 13.9 mg/kg, po measured for 20 min relative to vehicle-treated control; details: Abdomen
Rattus norvegicus [13] = assay: Antiulcerogenic activity in fasted Rattus norvegicus Sprague-Dawley (rat) stomach assessed as ulcer index at 62.2 mg/kg, po after 8 hr (reference value: 0.23 +/- 0.09); type: functional
Mus musculus [14] = assay: Analgesic activity in Mus musculus (mouse) assessed as inhibition of acetic acid-induced abdominal writhing at 12.9 mg/kg, po measured for 20 min relative to vehicle-treated control; details: Abdomen
Rattus norvegicus [15] = assay: Anti-inflammatory activity in Rattus norvegicus Sprague-Dawley (rat) assessed as increase in carrageenan-induced paw edema at 15.6 mg/kg, po measured at 2 hr by plethysmometer (reference value: 64.73 +/- 0.72 %); type: functional
Rattus norvegicus [16] = assay: Anti-inflammatory activity in Rattus norvegicus Sprague-Dawley (rat) assessed as increase in carrageenan-induced paw edema at 15.6 mg/kg, po measured at 4 hr by plethysmometer (reference value: 81.58 +/- 0.63 %); type: functional
Rattus norvegicus [17] = assay: Anti-inflammatory activity in Rattus norvegicus Sprague-Dawley (rat) assessed as increase in carrageenan-induced paw edema at 16.9 mg/kg, po measured at 2 hr by plethysmometer (reference value: 64.73 +/- 0.72 %); type: functional
Mus musculus [18] = assay: Analgesic activity in Mus musculus (mouse) assessed as inhibition of acetic acid-induced abdominal writhing at 14.08 mg/kg, po measured for 20 min relative to vehicle-treated control; details: Abdomen
Rattus norvegicus [19] = assay: Antiulcerogenic activity in fasted Rattus norvegicus Sprague-Dawley (rat) stomach assessed as ulcer index at 67.6 mg/kg, po after 8 hr (reference value: 0.23 +/- 0.09); type: functional
Rattus norvegicus [20] = assay: Anti-inflammatory activity in Rattus norvegicus Sprague-Dawley (rat) assessed as increase in carrageenan-induced paw edema at 16.9 mg/kg, po measured at 4 hr by plethysmometer (reference value: 81.58 +/- 0.63 %); type: functional
Mus musculus [21] = assay: Analgesic activity in Mus musculus (mouse) assessed as inhibition of acetic acid-induced abdominal writhing at 13.69 mg/kg, po measured for 20 min relative to vehicle-treated control; details: Abdomen
Rattus norvegicus [22] = assay: Antiulcerogenic activity in fasted Rattus norvegicus Sprague-Dawley (rat) stomach assessed as ulcer index at 65.7 mg/kg, po after 8 hr (reference value: 0.23 +/- 0.09); type: functional
Rattus norvegicus [23] = assay: Anti-inflammatory activity in Rattus norvegicus Sprague-Dawley (rat) assessed as increase in carrageenan-induced paw edema at 16.4 mg/kg, po measured at 4 hr by plethysmometer (reference value: 81.58 +/- 0.63 %); type: functional
Rattus norvegicus [24] = assay: Anti-inflammatory activity in Rattus norvegicus Sprague-Dawley (rat) assessed as increase in carrageenan-induced paw edema at 16.4 mg/kg, po measured at 2 hr by plethysmometer (reference value: 64.73 +/- 0.72 %); type: functional
Rattus norvegicus [25] = assay: Anti-inflammatory activity in Rattus norvegicus Sprague-Dawley (rat) assessed as increase in carrageenan-induced paw edema at 16.5 mg/kg, po measured at 4 hr by plethysmometer (reference value: 81.58 +/- 0.63 %); type: functional
Rattus norvegicus [26] = assay: Antiulcerogenic activity in fasted Rattus norvegicus Sprague-Dawley (rat) stomach assessed as ulcer index at 66 mg/kg, po after 8 hr (reference value: 0.23 +/- 0.09); type: functional
Rattus norvegicus [27] = assay: Anti-inflammatory activity in Rattus norvegicus Sprague-Dawley (rat) assessed as increase in carrageenan-induced paw edema at 16.5 mg/kg, po measured at 2 hr by plethysmometer (reference value: 64.73 +/- 0.72 %); type: functional
Mus musculus [28] = assay: Analgesic activity in Mus musculus (mouse) assessed as inhibition of acetic acid-induced abdominal writhing at 13.75 mg/kg, po measured for 20 min relative to vehicle-treated control; details: Abdomen
Mus musculus [29] = assay: Analgesic activity in Mus musculus (mouse) assessed as inhibition of acetic acid-induced abdominal writhing at 10 mg/kg, po measured for 20 min relative to vehicle-treated control; details: Abdomen
Rattus norvegicus [30] = assay: Anti-inflammatory activity in Rattus norvegicus Sprague-Dawley (rat) assessed as increase in carrageenan-induced paw edema at 12 mg/kg, po measured at 2 hr by plethysmometer (reference value: 64.73 +/- 0.72 %); type: functional
Rattus norvegicus [31] = assay: Antiulcerogenic activity in fasted Rattus norvegicus Sprague-Dawley (rat) stomach assessed as ulcer index at 48 mg/kg, po after 8 hr (reference value: 0.23 +/- 0.09); type: functional
Rattus norvegicus [32] = assay: Anti-inflammatory activity in Rattus norvegicus Sprague-Dawley (rat) assessed as increase in carrageenan-induced paw edema at 12 mg/kg, po measured at 4 hr by plethysmometer (reference value: 81.58 +/- 0.63 %); type: functional

COc1ccc2c(c1)c(CC(=O)Oc1ccc3c(c1)OCO3)c(C)n2C(=O)c1ccc(Cl)cc1
Activity (Rattus norvegicus [1]): 44.52%
Activity (Rattus norvegicus [2]): 43.17%
inhibition in vivo at 13.96 mg/kg (Mus musculus [3]): 86%
UI (Rattus norvegicus [4]): 0.79

COc1ccc2c(c1)c(CC(=O)Oc1ccc3ccc(=O)oc3c1)c(C)n2C(=O)c1ccc(Cl)cc1
Activity (Rattus norvegicus [5]): 48.06%
Activity (Rattus norvegicus [6]): 50.27%
UI (Rattus norvegicus [7]): 1.28
inhibition in vivo at 13.35 mg/kg (Mus musculus [8]): 75.2%

COc1ccc2c(c1)c(CC(=O)O[C@@H]1C[C@H](C)CC[C@H]1C(C)C)c(C)n2C(=O)c1ccc(Cl)cc1
Activity (Rattus norvegicus [9]): 52.01%
UI (Rattus norvegicus [10]): 1.41
Activity (Rattus norvegicus [11]): 55.54%
inhibition in vivo at 13.9 mg/kg (Mus musculus [12]): 73.9%

COc1ccc2c(c1)c(CC(=O)Oc1ccccc1OC)c(C)n2C(=O)c1ccc(Cl)cc1
UI (Rattus norvegicus [13]): 1.15
inhibition in vivo at 12.9 mg/kg (Mus musculus [14]): 78.7%
Activity (Rattus norvegicus [15]): 46.89%
Activity (Rattus norvegicus [16]): 48.21%

C=CCc1ccc(OC(=O)Cc2c(C)n(C(=O)c3ccc(Cl)cc3)c3ccc(OC)cc23)c(OC)c1
Activity (Rattus norvegicus [17]): 44.33%
inhibition in vivo at 14.08 mg/kg (Mus musculus [18]): 84.8%
UI (Rattus norvegicus [19]): 0.93
Activity (Rattus norvegicus [20]): 45.39%

COc1ccc2c(c1)c(CC(=O)Oc1cc(C)ccc1C(C)C)c(C)n2C(=O)c1ccc(Cl)cc1
inhibition in vivo at 13.69 mg/kg (Mus musculus [21]): 73.2%
UI (Rattus norvegicus [22]): 1.37
Activity (Rattus norvegicus [23]): 54.61%
Activity (Rattus norvegicus [24]): 50.25%

COc1ccc2c(c1)c(CC(=O)Oc1ccc(C=O)cc1OC)c(C)n2C(=O)c1ccc(Cl)cc1
Activity (Rattus norvegicus [25]): 49.87%
UI (Rattus norvegicus [26]): 1.23
Activity (Rattus norvegicus [27]): 47.13%
inhibition in vivo at 13.75 mg/kg (Mus musculus [28]): 81.5%

COc1ccc2c(c1)c(CC(=O)O)c(C)n2C(=O)c1ccc(Cl)cc1 [INDOMETHACIN]
inhibition in vivo at 10 mg/kg (Mus musculus [29]): 74.9%
Activity (Rattus norvegicus [30]): 48.35%
UI (Rattus norvegicus [31]): 5.54
Activity (Rattus norvegicus [32]): 57.39%
